The experiment concerns the target GLP-1R (Homo sapiens, UniProt P43220). The experiment can be described thus: Agonist activity on GLP-1R, HTRF cAMP detection in stably transfected GLP-1R/HEK293 cells. Format: cell-based. As to conditions: for EC50: 30 min incubation; for Max activity: relative to top concentration of reference GLP-1(7-37). The protocol:
Detection of Agonist Activity of the Test Compounds on GLP-1R
• 1) The test compound was dissolved in DMSO and diluted 4-fold with Bravo for a total of 10 concentration gradients (the starting concentration was 1 mM). […] HBSS (10 mL) pre-warmed at 37° C. was added, mixed gently, and centrifuged at 1000 rpm for 5 minutes. The supernatant was discarded and another 10 mL of […] was added and mixed gently. […] The plate was shaken to mix at 2000 rpm for 60 seconds. • 7) The cells in the 384-well plate were incubated in CO2 cell incubator at 37° C. for 30 min. • 8) 10 μL of HTRF cAMP detection solution was added to the 384-well plate, stick with sealing film, and incubated at room temperature for 1 hour. • 9) After 1 hour of incubation, the sealing film was removed. The plate was put into the EnVision microplate reader to read the values of OD665 nm and OD615 nm.

Sequence of GLP-1R (P43220 24-463): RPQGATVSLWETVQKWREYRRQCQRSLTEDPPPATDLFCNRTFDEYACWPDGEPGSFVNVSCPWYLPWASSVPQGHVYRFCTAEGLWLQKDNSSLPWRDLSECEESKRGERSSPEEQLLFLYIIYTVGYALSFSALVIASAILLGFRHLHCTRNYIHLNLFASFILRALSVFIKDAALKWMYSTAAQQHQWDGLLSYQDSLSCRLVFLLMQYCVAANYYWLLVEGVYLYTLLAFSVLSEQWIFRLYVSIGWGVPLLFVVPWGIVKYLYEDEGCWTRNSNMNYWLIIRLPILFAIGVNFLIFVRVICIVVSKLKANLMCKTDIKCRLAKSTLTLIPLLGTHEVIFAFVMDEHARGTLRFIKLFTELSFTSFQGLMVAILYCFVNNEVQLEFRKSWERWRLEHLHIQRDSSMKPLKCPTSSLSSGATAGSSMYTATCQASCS

Take `O=C(O)c1ccc2nc(CN3CCC(Oc4cccc(COc5ccc(Br)cc5F)n4)CC3)n(Cc3cncn3CC3CC3)c2c1` [Compound C19, 2-((4-((6-((4-bromo-2-fluorophenoxy)methyl)pyridin-2-yl)oxy)piperidin-1-yl)methyl)-1-((1-(cyclopropylmethyl)-1H-imidazol-5-yl)methyl)-1H-benzo[d]imidazole-6-carboxylicacid]: a half-maximal response (EC50) required 1.07 nM and the Max activity was 134.3%.

For the molecule `N#CCC1(Cn2c(CN3CCC(Oc4cccc(COc5ccc(Cl)cc5F)n4)CC3)nc3ccc(C(=O)O)cc32)CC1` [Compound C84, 2-((4-((6-((4-chloro-2-fluorophenoxy)methyl)pyridin-2-yl)oxy)piperidin-1-yl)methyl)-1-((1-(cyanomethyl)cyclopropyl)methyl)-1H-benzo[d]imidazole-6-carboxylic acid], the EC50 was determined as 0.246 nM and the Max activity is 136.4%.

In the case of `N#Cc1ccc(OCc2cccc(OC3CCN(Cc4nc5ccc(C(=O)O)cc5n4Cc4cncn4CC4CC4)CC3)c2)c(F)c1` [Compound C20, 2-((4-(3-((4-cyano-2-fluorophenoxy)methyl)phenoxy)piperidin-1-yl)methyl)-1-((1-(cyclopropylmethyl)-1H-imidazol-5-yl)methyl)-1H-benzo[d]imidazole-6-carboxylic acid], the EC50 amounted to 0.425 nM and the Max activity came to 137.0%.

Molecule `Cn1c(CN2CCC(Oc3cccc(COc4ccc(Cl)cc4F)n3)CC2)nc2ccc(C(=O)O)cc21` [Compound C22, 2-((4-((6-((4-chloro-2-fluorophenoxy)methyl)pyridin-2-yl)oxy)piperidin-1-yl)methyl)-1-methyl-1H-benzo[d]imidazole-6-carboxylic acid] registered a concentration for a half-maximal effect (EC50) of 30.4 nM.

With `Cc1cc(C(=O)O)cc2c1nc(CN1CCC(Oc3cccc(COc4ccc(C#N)cc4F)c3)CC1)n2C[C@@H]1CCO1` [Compound C36], the EC50 amounted to 3.92 nM and the Max activity came out at 104.0%.

For `N#Cc1ccc(COc2cccc(Oc3cc(F)c(Cc4nc5c(F)cc(C(=O)O)cc5n4C[C@@H]4CCO4)cc3F)n2)c(F)c1` [Compound C43, (S)-2-(4-((6-((4-cyano-2-fluorobenzyl)oxy)pyridin-2-yl)oxy)-2,5-difluorobenzyl)-4-fluoro-1-(oxetan-2-ylmethyl)-1H-benzo[d]imidazole-6-carboxylic acid], it took 5.31 nM to reach a half-maximal effect (EC50) and the Max activity amounted to 88.8%.

Take `CCn1cncc1Cn1c(CN2CCC(Oc3cccc(COc4ccc(Br)cc4F)n3)CC2)nc2ccc(C(=O)O)cc21` [Compound C3, 2-((4-((6-((4-bromo-2-fluorophenoxy)methyl)pyridin-2-yl)oxy)piperidin-1-yl)methyl)-1-((1-ethyl-1H-imidazol-5-yl)methyl)-1H-benzo[d]imidazole-6-carboxylic acid]: the midpoint of the response, the EC50, lay at 0.278 nM and the Max activity was 122.3%.

For the molecule `N#Cc1ccc(COc2cccc(OC3CCN(Cc4nc5ccc(C(=O)O)cc5n4C[C@@H]4CCO4)CC3)c2)c(F)c1` [Compound S5, (S)-2-((4-(3-((4-cyano-2-fluorobenzyl)oxy)phenoxy)piperidin-1-yl)methyl)-1-(oxetan-2-ylmethyl)-1H-benzo[d]imidazole-6-carboxylic acid], the response was half-maximal at 15.4 nM (EC50) and the Max activity was 125.2%.

With `N#Cc1ccc(COc2cccc(OC3CN(Cc4nc5ccc(C(=O)O)cc5n4C[C@@H]4CCO4)C3)n2)c(F)c1` [Compound S3, (S)-2-((3-((6-((4-cyano-2-fluorobenzyl)oxy)pyridin-2-yl)oxy)azetidin-1-yl)methyl)-1-(oxetan-2-ylmethyl)-1H-benzo[d]imidazole-6-carboxylic acid], the EC50 turned out to be 2170 nM and the Max activity stood at 70.1%.

`N#Cc1ccc(OCc2cccc(Oc3ccc(Cc4nc5ccc(C(=O)O)cc5n4C[C@@H]4CCO4)cc3)n2)c(F)c1` [Compound C27, (S)-2-(4-((6-((4-cyano-2-fluorophenoxy)methyl)pyridin-2-yl)oxy)benzyl)-1-(oxetan-2-ylmethyl)-1H-benzo[d]imidazole-6-carboxylic acid] showed a half-maximal effective concentration (EC50) of 8.03 nM. That is a single-digit nanomolar value.

In the case of `CCn1cncc1Cn1c(CN2CCC(Oc3cccc(CSc4ccc(C#N)cc4F)n3)CC2)nc2ccc(C(=O)O)cc21` [Compound C12, 2-((4-((6-(((4-cyano-2-fluorophenyl)thio)methyl)pyridin-2-yl)oxy)piperidin-1-yl)methyl)-1-((1-ethyl-1H-imidazol-5-yl)methyl)-1H-benzo[d]imidazole-6-carboxylic acid], the EC50 turned out to be 0.233 nM and the Max activity is 125.5%.

As for `C#Cc1ccc(OCc2cccc(OC3CCN(Cc4nc5ccc(C(=O)O)cc5n4Cc4cncn4CC)CC3)n2)c(F)c1` [Compound C14], the EC50 came out at 0.315 nM and the Max activity is listed as 101.9%.

Take `CCn1cncc1Cn1c(CN2CCC(Oc3cccc(OCc4ccc(C#N)cc4F)n3)CC2)nc2ccc(C(=O)O)cc21` [Compound S4, 2-((4-((6-((4-cyano-2-fluorobenzyl)oxy)pyridin-2-yl)oxy)piperidin-1-yl)methyl)-1-((1-ethyl-1H-imidazol-5-yl)methyl)-1H-benzo[d]imidazole-6-carboxylic acid]: the EC50 was 0.29 nM and the Max activity was 106.9%.

With `CCn1cncc1Cn1c(CN2CCC(Nc3cccc(COc4ccc(C#N)cc4F)n3)CC2)nc2ccc(C(=O)O)cc21` [Compound C17, 2-((4-((6-((4-cyano-2-fluorophenoxy)methyl)pyridin-2-yl)amino)piperidin-1-yl)methyl)-1-((1-ethyl-1H-imidazol-5-yl)methyl)-1H-benzo[d]imidazole-6-carboxylic acid], the half-maximal effective concentration (EC50) stood at 0.668 nM and the Max activity was determined as 127.7%.

Consider `CCn1cncc1Cn1c(CN2CCC(Oc3cccc(CSc4ccc(Cl)cc4F)n3)CC2)nc2ccc(C(=O)O)cc21` [Compound C9], for which a half-maximal effect (EC50) was put at 3.74 nM and the Max activity is 97.2%.

Consider `O=C(O)c1ccc2nc(CN3CCC(Oc4cccc(COc5ccc(Br)cc5F)n4)CC3)n(C[C@@H]3CCO3)c2c1` [Compound C4, (S)-2-((4-((6-((4-bromo-2-fluorophenoxy)methyl)pyridin-2-yl)oxy)piperidin-1-yl)methyl)-1-(oxetan-2-ylmethyl)-1H-benzo[d]imidazole-6-carboxylic acid], for which the EC50 turned out to be 0.56 nM and the Max activity was found to be 147.9%.

On to `N#CCC1(Cn2c(CN3CCC(Oc4cccc(OCc5ccc(C#N)cc5F)c4)CC3)nc3c(F)cc(C(=O)O)cc32)CC1` [Compound S6], for which the midpoint of the response, the EC50, lay at 2.6 nM and the Max activity came out at 114.9%.

Take `N#Cc1ccc(OCc2nc(OC3CCN(Cc4nc5ccc(C(=O)O)cc5n4C[C@@H]4CCO4)CC3)ccc2F)c(F)c1` [Compound C83, (S)-2-((4-((6-((4-cyano-2-fluorophenoxy)methyl)-5-fluoropyridin-2-yl)oxy)piperidin-1-yl)methyl)-1-(oxetan-2-ylmethyl)-1H-benzo[d]imidazole-6-carboxylic acid]: the EC50 came to 0.705 nM and the Max activity was 111.1%.

`CCn1cncc1Cn1c(CN2CCC(Oc3ccc(F)c(OCc4ccc(Cl)cc4F)n3)CC2)nc2ccc(C(=O)O)cc21` [Compound C11, 2-((4-((6-((4-chloro-2-fluorobenzyl)oxy)-5-fluoropyridin-2-yl)oxy)piperidin-1-yl)methyl)-1-((1-ethyl-1H-imidazol-5-yl)methyl)-1H-benzo[d]imidazole-6-carboxylic acid]: a half-maximal response (EC50) required 1.48 nM and the Max activity came out at 114.8%.

For the molecule `N#Cc1ccc(OCc2cccc(OC3CCN(Cc4nc5ccc(C(=O)O)cc5n4CC4COC4)CC3)n2)c(F)c1` [Compound C82, 2-((4-((6-((4-cyano-2-fluorophenoxy)methyl)pyridin-2-yl)oxy)piperidin-1-yl)methyl)-1-(oxetan-3-ylmethyl)-1H-benzo[d]imidazole-6-carboxylic acid], the response was half-maximal at 7.48 nM (EC50) and the Max activity stood at 90.7%.

For `CC1(Cn2c(CN3CCC(Oc4cccc(COc5ccc(C#N)cc5F)n4)CC3)nc3ccc(C(=O)O)cc32)COC1` [Compound C5, 2-((4-((6-((4-cyano-2-fluorophenoxy)methyl)pyridin-2-yl)oxy)piperidin-1-yl)methyl)-1-((3-methyloxetan-3-yl)methyl)-1H-benzo[d]imidazole-6-carboxylic acid], the EC50 was found to be 2.41 nM and the Max activity is 112.6%.

As for `CCn1cncc1Cn1c(CN2CCC(Oc3cccc(COc4ccc(Cl)cc4F)n3)CC2)nc2ccc(C(=O)O)cc21` [Compound 43, 2-((4-((6-((4-chloro-2-fluorophenoxy)methyl)pyridin-2-yl)oxy)piperidin-1-yl)methyl)-1-((1-ethyl-1H-imidazol-5-yl)methyl)-1H-benzo[d]imidazole-6-carboxylic acid], it took 0.11 nM to reach a half-maximal effect (EC50) and the Max activity is recorded as 109.7%.

With `CCn1cncc1Cn1c(CN2CCN(Cc3cccc(COc4ccc(C#N)cc4F)n3)CC2)nc2ccc(C(=O)O)cc21` [Compound C38, 2-((4-((6-((4-cyano-2-fluorophenoxy)methyl)pyridin-2-yl)methyl)piperazin-1-yl)methyl)-1-((1-ethyl-1H-imidazol-5-yl)methyl)-1H-benzo[d]imidazole-6-carboxylic acid], the EC50 was > 100 nM.

`C#Cc1ccc(OCc2cccc(OC3CCN(Cc4nc5ccc(C(=O)O)cc5n4C[C@@H]4CCO4)CC3)n2)c(F)c1` [Compound C15, (S)-2-((4-((6-((4-ethynyl-2-fluorophenoxy)methyl)pyridin-2-yl)oxy)piperidin-1-yl)methyl)-1-(oxetan-2-ylmethyl)-1H-benzo[d]imidazole-6-carboxylic acid]: the EC50 came to 0.807 nM and the Max activity is recorded as 109.1%.
